Test results from PubChem BioAssay (NCI).
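Values below derive from 48-hour exposures of cells grown in 96-well plates, with endpoints linearly interpolated between the two concentrations bracketing the appropriate inhibition level. Definition used: TGI = concentration required for complete inhibition of growth.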 Where a SMILES comes first, the peptide text is derived from it. The star is where a group is joined. Cbz = O=C(OCc1ccccc1)*

Assays:
Assay in all cases: NCI tumour cell line growth inhibition, 48 h
[1] = test system: HL-60(TB) leukemia
[2] = test system: NCI-H226 lung
[3] = test system: RXF 393 renal
[4] = test system: NCI/ADR-RES ovarian
[5] = test system: M14 melanoma
[6] = test system: K-562 leukemia
[7] = test system: UO-31 renal
[8] = test system: SNB-19 CNS
[9] = test system: BT-549 breast
[10] = test system: MOLT-4 leukemia

Compound | TGI [1] [µM] | TGI [2] [µM] | TGI [3] [µM] | TGI [4] [µM] | TGI [5] [µM] | TGI [6] [µM] | TGI [7] [µM] | TGI [8] [µM] | TGI [9] [µM] | TGI [10] [µM]
COc1cc2c(C)cc(O)cc2c2cc(O)c(C)cc12 | 13 | 28.2 | 22.9 | 30.4 | 6.67 | 9.94 | 19.1 | 21.4 | 23 | 25.1
Cc1cc2oc(=N)c(C#N)c(C)c2cc1C | > 100 | > 100 | 87.3 | > 100 | > 100 | > 100 | > 100 | > 100 | > 100 | 33.2
Cc1nn(-c2ccccc2)c2c1C(c1ccc(Cl)cc1)NC(=S)N2 (stereo not given) | 95.8 | > 100 | 35.3 | 68.5 | > 100 | > 100 | 28.8 | > 100 | 59.7 | > 100
N#Cc1c(N)nc2n[nH]c(N)c2c1-c1ccc(Cl)cc1 | > 100 | > 100 | 7.26 | 61.6 | > 39.8 | > 100 | 19.9 | > 59.9 | 12.7 | > 100
CCCCCCc1cc2cc(C(=O)Nc3ccccc3)c(=N)oc2cc1O | > 100 | > 100 | > 100 | > 100 | > 29.4 | > 100 | 12.7 | > 73.8 | > 100 | 8.79
CN(C)CCCC12CCCCC1=Nc1ccccc12 (stereo not given) | 76.3 | > 100 | > 100 | > 100 | > 100 | > 100 | > 100 | > 100 | > 100 | > 100
COC(=O)/C=C(\C)CC(O)/C=C(\C)CCC=C(C)C (stereo not given) | 46.2 | > 100 | > 100 | 67.9 | > 100 | > 100 | > 100 | > 100 | > 100 | 55.3
CCOC(=O)CN1C(=O)c2ccc(NC(=O)C(=O)O)cc2S1(=O)=O | > 100 | > 100 | > 100 | > 100 | > 100 | > 100 | > 100 | > 100 | > 100 | > 100
COC(CNC(=O)C(C)NC(=O)/C=C/c1ccccc1)OC (stereo not given) | > 100 | > 100 | > 100 | > 100 | > 100 | > 100 | > 100 | > 100 | > 100 | > 100
CN1CCN(C(=S)N2CCN(C)CC2)CC1 | > 100 | > 100 | > 100 | > 100 | > 100 | > 100 | > 100 | > 100 | > 100 | > 100
O=C(O)CCC(NC(=O)OCc1ccccc1)C(=O)NC(Cc1cnc[nH]1)C(=O)O (stereo not drawn) (Cbz-Glu-His-OH; configuration not given here) | > 100 | > 100 | > 100 | > 100 | > 100 | > 100 | > 100 | > 100 | > 100 | > 100
Cc1cc(S(=O)(=O)Nc2n[nH]c(N)n2)c(SCC(=O)O)cc1Cl | > 10 | > 10 | > 10 | > 10 | > 10 | > 10 | > 10 | > 10 | > 10 | > 10
CC1OC(OC2C(O)COC(OC3C(C)OC(OC4C(OC(=O)[C@]56CCC(C)(C)C[C@@H]5C5=CCC7[C@@]8(C)C[C@H](O)[C@H](OC9OC(CO)C(O)C(O)C9O)[C@@](C)(CO)[C@@H]8CC[C@@]7(C)[C@]5(C)CC6)OCC(O)C4O)C(O)C3OC3OCC(O)(CO)C3O)C2O)C(O)C(O)C1O (stereo not given in full) | 30.2 | 43 | 34.1 | 41.7 | 10.4 | > 75 | 14.2 | 29 | 38 | 46.5
